Source: patent publication US6825209B2, “Compounds having unique CB1 receptor binding selectivity and methods for their production and use” (Research Triangle Institute, priority 2002, dated 2004)
“And” between values parts separate entries of the source, which are not always exact repeats. Equal entries are not always repeated. Where two headings read alike, the source gives them in different places.

Experiments:
[1] = target: T1, G-protein-linked cannabinoid receptors (Rattus norvegicus, UniProt P20272); test: GTP-γ-[35S] binding in whole rat brain; assay type: biochemical; conditions: for Emax: read-out: Emax, GTP-γ-[35S] in Whole Rat Brain; for EC50: inverse agonist/antagonist activity
T1 construct: tissue Charles River or Pel-Freez Biologicals; host or cells: whole rat brain crude membrane homogenate
Excerpt: Cannabinoid receptor-mediated alteration in GTP-γ-[^35S] binding.
Introduction. The purpose of this assay was to characterize the functional activity of lead compounds identified by the radioligand competition binding assays described above. Data from the GTP-γ-[^35S] binding assay was used to determine if a compound was an agonist, antagonist or inverse agonist at G-protein-linked cannabinoid receptors. Agonist binding to a G-protein-linked receptor results in an increased affinity of the G-protein α-subunit for GTP relative to GDP. Eventually, an active αGTP complex forms to complete the stimulus-effector coupling. The α-subunit has intrinsic GTPase activity which generates a free α-subunit which can recombine with the β- and γ-subunits readying the G-protein for another signal transduction cycle. In the current assay, GTP-γ-[^35S] cannot be hydrolyzed by the α-subunit. Thus, the amount of bound GTP-γ-[^35S] is a marker for G-protein activation. In this assay, an agonist increases basal GTP-γ-[^35S] binding, an inverse agonist decreases basal binding and basal binding would be unaffected by an antagonist.
Experimental Design. The specific binding of GTP-γ-[^35S], in the absence of test compound, was termed “basal” activity. Test compounds were characterized as agonist, antagonist, or inverse agonist based on their effect on basal activity. […] The concentrations spanned two orders of magnitude because affinity may not be related to efficacy. […] Effects of the test compounds are reported as the percent change from basal. More thorough dose-response analysis may be run to determine, for example, if a compound is a full or partial agonist.
Methods. […] In a final volume of 0.5 mL, each assay tube contained: 0.02 mg crude membrane homogenate (0.1 mL), 200 μM GDP (0.05 mL; to reduce basal G-protein activity), 0.1 nM GTP-γ-[^35S] (0.05 mL) and several concentrations of test compound (0.05 mL) or an equivalent volume of vehicle (used for determination of total binding). Nonspecific binding was determined in the presence of 100 μM unlabeled GTP-γ-S (0.05 mL). Duplicate samples were incubated for 1 h at 30° C. Since this assay is amenable for use with high throughput screening methods, the binding assays were run using a 96-well plate format. Specific binding was calculated as total binding-nonspecific binding.

cannabinoid receptors = target: T2, cannabinoid receptors (Mus musculus, UniProt P47746); test: Mouse vas deferens tissue assay (WIN55212-2 as agonist); conditions: for % Inverse Effect: in the absence of WIN55212-2; for Dextral Shift: shift of the WIN55212-2 dose response curve
T2 construct: mediated by cannabinoid receptors located on prejunctional neurones; from tissue; host or cells: mouse isolated vas deferens
Excerpt: Pharmacological characterization in isolated mouse vas deferens.
Introduction. The mouse isolated vas deferens can be used to determine both the potency and efficacy (maximum degree of inhibition produced) of cannabinoid receptor agonists. Because of its high sensitivity, this assay usually requires only microgram quantities of test material.
The inhibitory effect of cannabinoids on electrically evoked contractions is thought to be mediated by cannabinoid receptors located on prejunctional neurones rather than on the smooth muscle.
Experimental design. Isolated mouse vasa deferentia were used to determine the potency and efficacy of test compounds as inhibitors of electrically evoked contractions. […] Ability to antagonize was expressed in terms of the association constant (Kb) for the forward reaction between antagonist and cannabinoid receptors.
Methods. […] Electrical field stimulation was between platinum electrodes located at the upper and lower ends of each bath. The stimuli were generated by a Grass S48 stimulator, then amplified (Med-Lab channel attenuator) and finally divided to yield separate outputs to four organ baths (Med-Lab Stimusplitter). All contractions were recorded isometrically.
Concentration-response curves were constructed cumulatively.

CB1 versus CB2 receptors = test: Relative selectivity of the analogs for CB1 versus CB2 receptors; conditions: CB1 versus CB2 binding, Tables 1, 6 and 7
Excerpt: Human CB2 receptor affinity. The relative selectivity of the analogs for CB1 versus CB2 receptors varied modestly regardless of the structural modifications examined to date.

[2] = whole rat brain membranes, effects reported as percent change from basal
[3] = whole rat brain membranes, read-out: EC50, GTP-γ-[35S] in Whole Rat Brain
[4] = isolated mouse vas deferens, WIN55212-2 as agonist, Schild equation, read-out: Kb

T1 sequence (P20272 whole entry): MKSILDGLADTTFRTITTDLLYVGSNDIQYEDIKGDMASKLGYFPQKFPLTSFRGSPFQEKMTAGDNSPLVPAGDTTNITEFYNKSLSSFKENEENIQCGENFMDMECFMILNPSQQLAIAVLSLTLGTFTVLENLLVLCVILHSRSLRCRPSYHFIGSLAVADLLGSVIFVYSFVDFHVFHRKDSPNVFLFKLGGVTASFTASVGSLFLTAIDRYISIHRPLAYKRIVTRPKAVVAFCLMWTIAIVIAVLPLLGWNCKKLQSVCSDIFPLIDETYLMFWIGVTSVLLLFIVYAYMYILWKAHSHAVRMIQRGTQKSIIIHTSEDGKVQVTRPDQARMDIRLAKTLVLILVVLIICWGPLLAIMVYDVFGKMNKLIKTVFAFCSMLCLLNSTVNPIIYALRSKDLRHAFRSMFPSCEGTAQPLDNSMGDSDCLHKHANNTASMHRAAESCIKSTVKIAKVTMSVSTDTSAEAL
T2 sequence (P47746 whole entry): as the sequence (P20272 whole entry) above, with E95D counted along it

Emax [1, 2] [%] | EC50 [1, 3] [µM] | % Inverse Effect (cannabinoid receptors; isolated mouse vas deferens) | Kb (cannabinoid receptors; [4]) [µM] | Dextral Shift (cannabinoid receptors; isolated mouse vas deferens) | CB1 selectivity (CB1 versus CB2) (CB1 versus CB2 receptors) [fold] | Structure (SMILES) | Kb (cannabinoid receptors) [µM] | Kb (cannabinoid receptors; isolated mouse vas deferens, WIN55212-2 as agonist, Schild equation) | Dextral Shift (cannabinoid receptors; isolated mouse vas deferens, listed as heptyl analog) | EC50 ([1]; EC50, GTP-γ-[35S] in Whole Rat Brain, whole rat brain membranes) [µM] | Emax [1] [%]
-11 | 7.54 | – | – | – | – | Cc1c(C(=O)NCC(C)C)nn(-c2ccc(Cl)cc2Cl)c1-c1ccc(Cl)cc1 [MF9725-68-10] | – | – | – | – | –
-46.4 | 16 | – | – | – | – | Cc1c(C(=O)NC(C)C)nn(-c2ccc(Cl)cc2Cl)c1-c1ccc(Cl)cc1 [MF9725-65-11] | – | – | – | – | –
-22.1 | 26 | 55.5% | 0.0012 | 26.7 | 93 | Cc1c(C(=O)NC2CCCCC2)nn(-c2ccc(Cl)cc2Cl)c1-c1ccc(Cl)cc1 [MF9725-66-11] | – | – | – | – | –
-13 | 29.4 | 30.1% | 0.0154 | no effect | – | CCCCCCNC(=O)c1nn(-c2ccc(Cl)cc2Cl)c(-c2ccc(Cl)cc2)c1C [MF9725-132-25] | – | – | – | – | –
-76.3 | 38.9 | 82.5% | 0.0125 | 26.3 | – | Cc1c(C(=O)NN2CCOCC2)nn(-c2ccc(Cl)cc2Cl)c1-c1ccc(Cl)cc1 [MF9725-33D] | – | – | – | – | –
-38.5 | 8.54 | 28.2% | 0.0212 | no effect | – | CCCCNC(=O)c1nn(-c2ccc(Cl)cc2Cl)c(-c2ccc(Cl)cc2)c1C [MF9725-64-17] | – | – | – | – | –

Structure (SMILES) | Emax [1, 2] [%] | EC50 [1, 3] [µM] | % Inverse Effect (cannabinoid receptors; isolated mouse vas deferens) | Kb (cannabinoid receptors; [4]) [µM] | Dextral Shift (cannabinoid receptors; isolated mouse vas deferens) | CB1 selectivity (CB1 versus CB2) (CB1 versus CB2 receptors) [fold] | Kb (cannabinoid receptors) [µM] | Kb (cannabinoid receptors; isolated mouse vas deferens, WIN55212-2 as agonist, Schild equation) | Dextral Shift (cannabinoid receptors; isolated mouse vas deferens, listed as heptyl analog) | EC50 ([1]; EC50, GTP-γ-[35S] in Whole Rat Brain, whole rat brain membranes) [µM] | Emax [1] [%]
CCCCCCCNC(=O)c1nn(-c2ccc(Cl)cc2Cl)c(-c2ccc(Cl)cc2)c1C [MF9725-133-25] | – | – | 50.6% and 37.8% | – | – | – | 0.0839 | no effect | failed to produce an effect | 213 | -20
